# Reference: patent publication US10858335B2 (Rigel Pharmaceuticals, Inc., priority 2014, dated 2020)
# Tested on: GDF8 signaling (p-SMAD-3 (Ser423/425))
# Test: AlphaScreen SureFire SMAD3 (p-Ser423/425) assay, GDF8-stimulated cells (GDF pSMAD)
# Format: cell-based
# Conditions: MPC11; GDF8-stimulated; p-SMAD3 AlphaScreen; read-out: GDF pSMAD (MPC11) (inhibition of GDF8 signaling)
row,SMILES,IC50
1,"Cc1cc(-c2ncccc2-c2ccc3ncc(C(=O)NC4CC5CCC(C4)N5C)n3c2)ccc1F (stereo not drawn) [compound 712, exo-6-(2-(4-Fluoro-3-methylphenyl)pyridin-3-yl)-N-(8-methyl-8-azabicyclo[3.2.1]octan-3-yl)imidazo[1,2-a]pyridine-3-carboxamide]",4.06 µM

# Same assay, conditions: Mus musculus, MPC-11, GDF8-stimulated pSMAD3, MPC11; tested as the salt form given; read-out: GDF pSMAD (MPC11) (μM), inhibition of GDF8 signaling
row,IC50,SMILES
1,0.0958 µM,"Nc1ncnc2ccc(-c3cccnc3-c3cc(C(F)F)ccc3F)cc12 [compound 1023, 6-(2-(5-(difluoromethyl)-2-fluorophenyl)pyridin-3-yl)quinazolin-4-amine]"
2,7.43 µM,Cc1cc(F)c(O)cc1-c1ncccc1-c1ccc2ncnc(N)c2c1 [compound 1019]
3,5.45 µM,"Cc1ccc(O)cc1-c1ncccc1-c1ccc2ncnc(N)c2c1 [compound 1005, 3-(3-(4-aminoquinazolin-6-yl)pyridin-2-yl)-4-methylphenol]"

# Same assay, conditions: Mus musculus, MPC-11, MPC11; GDF8-stimulated; p-SMAD3 AlphaScreen; read-out: GDF pSMAD (MPC11) (inhibition of GDF8 signaling)
row,SMILES,IC50
1,"OCc1cc(-c2ncccc2-c2ccc3[nH]ncc3c2)ccc1F [Compound 89, (5-(3-(1H-Indazol-5-yl)pyridin-2-yl)-2-fluorophenyl)methanol]",2.55 µM
2,"COc1cc(CNc2cnc(-c3ccc(F)c(C)c3)c(-c3ccc4ncsc4c3)c2)cc(OC)c1O [compound 366, 4-(((5-(Benzo[d]thiazol-6-yl)-6-(4-fluoro-3-methylphenyl)pyridin-3-yl)amino)methyl)-2,6-dimethoxyphenol]",0.226 µM
3,"FC(F)(F)c1cccc(-c2ncccc2-c2cnc3[nH]ncc3c2)c1 [Compound 198, 5-(2-(3-(Trifluoromethyl)phenyl)pyridin-3-yl)-1H-pyrazolo[3,4-b]pyridine]",0.44 µM
4,"Cc1cc(-c2ncccc2-c2ccc3ncnc(Oc4ccc(C#N)cc4)c3c2)ccc1F [compound 440, 4-((6-(2-(4-Fluoro-3-methylphenyl)pyridin-3-yl)quinazolin-4-yl)oxy)benzonitrile]",1.86 µM
5,"Cc1cc(-c2ncc(NCc3cccnc3)cc2-c2ccc3nccnc3c2)ccc1F [compound 244, 6-(4-Fluoro-3-methylphenyl)-N-(pyridin-3-ylmethyl)-5-(quinoxalin-6-yl)pyridin-3-amine]",0.798 µM
6,"Cc1cc(-c2ncccc2-c2ccc3ncn(CCCO)c3c2)ccc1F [Compound 41, 3-(6-(2-(4-Fluoro-3-methylphenyl)pyridin-3-yl)-1H-benzo[d]imidazol-1-yl)propan-1-ol]",3.14 µM
7,"COc1cccc(-c2ncccc2-c2ccc3[nH]ncc3c2)c1 [Compound 117, 5-(2-(3-Methoxyphenyl)pyridin-3-yl)-1H-indazole]",0.179 µM
8,"Cc1cc(-c2ncccc2-c2ccc3[nH]ncc3c2)ccc1F [Compound 63, 5-(2-(4-Fluoro-3-methylphenyl)pyridin-3-yl)-1H-indazole]",0.142 µM
9,"Cc1cc(-c2ncccc2-c2ccc3ncnc(NC(C)C)c3c2)ccc1F [compound 400, 6-(2-(4-Fluoro-3-methylphenyl)pyridin-3-yl)-N-isopropylquinazolin-4-amine]",5.81 µM
10,"Cc1cc(-c2ncccc2-c2ccc3ncc(C(=O)OC[C@H](Cc4c[nH]c5ccccc45)NC(=O)OC(C)(C)C)n3c2)ccc1F [compound 614, (S)-2-((tert-Butoxycarbonyl)amino)-3-(1H-indol-3-yl)propyl 6-(2-(4-fluoro-3-methylphenyl)pyridin-3-yl)imidazo[1,2-a]pyridine-3-carboxylate]",5.56 µM
11,"Cc1cc(-c2ncc(NC3CCN(C)CC3)cc2-c2ccc3nccnc3c2)ccc1F [compound 240, 6-(4-Fluoro-3-methylphenyl)-N-(1-methylpiperidin-4-yl)-5-(quinoxalin-6-yl)pyridin-3-amine]",7.45 µM
12,"Cc1cc(-c2ncccc2-c2ccc3ncncc3c2)ccc1F [compound 363, 6-(2-(4-Fluoro-3-methylphenyl)pyridin-3-yl)quinazoline]",0.903 µM
13,"N#Cc1cccc(-c2ncccc2-c2cnc3cn[nH]c3c2)c1 [Compound 141, 3-(3-(1H-Pyrazolo[4,3-b]pyridin-6-yl)pyridin-2-yl)benzonitrile]",18.6 µM
14,"Cc1cccc(-c2ncccc2-c2ccc3[nH]cnc(=O)c3c2)c1 [compound 361, 6-(2-(m-tolyl)pyridin-3-yl)quinazolin-4(1H)-one]",0.23 µM
15,"c1cc(-c2ncccc2-c2ccc3[nH]ncc3c2)cc(C2CC2)c1 [Compound 150, 5-(2-(3-Cyclopropylphenyl)pyridin-3-yl)-1H-indazole]",0.208 µM
16,"CCCC(=O)Nc1cnc(-c2ccc(F)c(C)c2)c(-c2ccc3ncsc3c2)c1 [compound 316, N-(5-(Benzo[d]thiazol-6-yl)-6-(4-fluoro-3-methylphenyl)pyridin-3-yl)butyramide]",6.39 µM
17,"Cc1cc(-c2ncccc2-c2ccc3cnc(C(=O)O)n3c2)ccc1F [compound 257, 6-(2-(4-Fluoro-3-methylphenyl)pyridin-3-yl)imidazo[1,5-a]pyridine-3-carboxylic acid]",1.84 µM
18,"Cc1cccc(-c2ncccc2-c2ccc3ncnc(N4CCOCC4)c3c2)c1 [compound 386, 4-(6-(2-(m-Tolyl)pyridin-3-yl)quinazolin-4-yl)morpholine]",2 µM
19,"CCN(CC)c1ncnc2ccc(-c3cccnc3-c3ccc(F)c(C)c3)cc12 [compound 397, N,N-Diethyl-6-(2-(4-fluoro-3-methylphenyl)pyridin-3-yl)quinazolin-4-amine]",9.41 µM
20,"Cc1cc(-c2ncccc2-c2ccc3[nH]ncc3c2)ccc1O [Compound 122, 4-(3-(1H-Indazol-5-yl)pyridin-2-yl)-2-methylphenol]",4.04 µM
21,"COc1cccc(-c2ncc3cc(-c4cccnc4-c4ccc(F)c(C)c4)ccn23)c1 [compound 286, 7-(2-(4-Fluoro-3-methylphenyl)pyridin-3-yl)-3-(3-methoxyphenyl)imidazo[1,5-a]pyridine]",12 µM
22,"Cc1cc(-c2ncc(NCc3cccc(N4CCOCC4)c3)cc2-c2ccc3ncsc3c2)ccc1F [compound 354, 5-(Benzo[d]thiazol-6-yl)-6-(4-fluoro-3-methylphenyl)-N-(3-morpholinobenzyl)pyridin-3-amine]",1.27 µM
23,"COc1cc(CNc2cnc(-c3ccc(F)c(C)c3)c(-c3ccc4ncsc4c3)c2)cc(O)c1OC [compound 367, 5-(((5-(Benzo[d]thiazol-6-yl)-6-(4-fluoro-3-methylphenyl)pyridin-3-yl)amino)methyl)-2,3-dimethoxyphenol]",0.28 µM
24,"Fc1cc(F)cc(-c2ncccc2-c2ccc3[nH]ncc3c2)c1 [Compound 67, 5-[2-(3,5-Difluorophenyl)pyridin-3-yl]-1H-indazole]",1.81 µM
25,"Cc1cc(-c2ncccc2-c2ccc3ncn(CCN4CCN(C)CC4)c3c2)ccc1F [Compound 37, 6-(2-(4-Fluoro-3-methylphenyl)pyridin-3-yl)-1-(2-(4-methylpiperazin-1-yl)ethyl)-1H-benzo[d]imidazole]",18.1 µM

# Other lines, results leading:
row,IC50,SMILES
1,9.07 µM,"Cc1cc(-c2ncccc2-c2ccnc(Nc3ccc(N4CCOCC4)cc3)n2)ccc1F [compound 904, 4-(2-(4-Fluoro-3-methylphenyl)pyridin-3-yl)-N-(4-morpholinophenyl)pyrimidin-2-amine]"
2,1.2 µM,"Nc1ncnc2ccc(-c3cccnc3-c3cccc(Cl)c3Cl)cc12 [compound 498, 6-(2-(2,3-Dichlorophenyl)pyridin-3-yl)quinazolin-4-amine]"
3,4.01 µM,"Fc1cnc(-c2cc(Cl)c(F)cc2F)c(-c2ccn3ncnc3c2)c1 [compound 861, 7-(2-(5-Chloro-2,4-difluorophenyl)-5-fluoropyridin-3-yl)-[1,2,4]triazolo[1,5-a]pyridine]"
4,0.516 µM,"N#Cc1cnc2ccc(-c3cccnc3-c3ccc(F)c(Cl)c3)cn12 [compound 689, 6-(2-(3-Chloro-4-fluorophenyl)pyridin-3-yl)imidazo[1,2-a]pyridine-3-carbonitrile]"
5,2.24 µM,"Fc1cc(F)cc(-c2ncccc2-c2ccc3ncsc3c2)c1 [compound 660, 6-(2-(3,5-Difluorophenyl)pyridin-3-yl)benzo[d]thiazole]"
6,0.122 µM,"Cc1cc(-c2ncccc2-c2ccc3ncc(C(=O)NCCO)n3c2)ccc1F [compound 705, 6-(2-(4-Fluoro-3-methylphenyl)pyridin-3-yl)-N-(2-hydroxyethyl)imidazo[1,2-a]pyridine-3-carboxamide]"
7,0.179 µM,"[2H]C([2H])([2H])c1cccc(-c2ncccc2-c2ccc3nccn3c2)c1 [compound 600, 6-(2-(3-(Methyl-d3)phenyl)pyridin-3-yl)imidazo[1,2-a]pyridine]"
8,0.127 µM,"O=c1[nH]cnc2ccc(-c3cccnc3-c3cc(Cl)ccc3F)cc12 [compound 822, 6-(2-(5-Chloro-2-fluorophenyl)pyridin-3-yl)quinazolin-4(3H)-one]"
9,4.05 µM,"Cc1cc(-c2ncccc2-c2ccc3ncc(=O)n(C)c3c2)ccc1F [compound 888, 7-(2-(4-Fluoro-3-methylphenyl)pyridin-3-yl)-1-methylquinoxalin-2(1H)-one]"
10,1.49 µM,"Cc1cc(-c2ncccc2-c2ccnc(Nc3cccc(N4CCOCC4)c3)n2)ccc1F [compound 905, 4-(2-(4-Fluoro-3-methylphenyl)pyridin-3-yl)-N-(3-morpholinophenyl)pyrimidin-2-amine]"
11,0.557 µM,"Cn1cnc2ccc(-c3cccnc3-c3cc(Cl)ccc3Cl)cc21 [compound 870, 6-(2-(2,5-Dichlorophenyl)pyridin-3-yl)-1-methyl-1H-benzo[d]imidazole]"
12,1.12 µM,"Cc1cc(-c2ncccc2-c2ccc3ncc(C(=O)Nc4ccc(C(N)=O)cc4)n3c2)ccc1F [compound 618, N-(4-Carbamoylphenyl)-6-(2-(4-fluoro-3-methylphenyl)pyridin-3-yl)imidazo[1,2-a]pyridine-3-carboxamide]"
13,6.47 µM,"Fc1cc(F)c(-c2ncccc2-c2ccn3ncnc3c2)cc1F [compound 874, 7-(2-(2,4,5-Trifluorophenyl)pyridin-3-yl)-[1,2,4]triazolo[1,5-a]pyridine]"
14,0.512 µM,"FC(F)Oc1cccc(-c2ncccc2-c2ccn3ncnc3c2)c1 [compound 883, 7-(2-(3-(Difluoromethoxy)phenyl)pyridin-3-yl)-[1,2,4]triazolo[1,5-a]pyridine]"
